The subject of data set [1] is U87-MG tumor cells. The data set is described as follows: In Vivo Survival Assay, orthotopic model of glioblastoma. Also on record: species or system nu/nu mice. The settings on record: daily dosing begun 10 days after intracranial implantation, 40 day time period, versus vehicle and temozolomide (p<0.0001). The protocol:
A glioblastoma animal model was developed in which U87-MG tumor cells were injected intracranially into nu/nu mice and a tumor was allowed to become established over a 10 day period. The mice were dosed daily with vehicle, Compound 109 or temozolomide (a standard-of-care agent), as indicated. The comparative results for survival for each treatment group (n=10) from administration of vehicle, Compound 109 and temozolomide are shown in FIG. 4.
Cells were implanted intracranially into nude mice and dosing was begun 10 days later with either vehicle, Compound 109 or temozolomide.

Data set [2] relates to Bmi-1. Briefly: Sandwich ELISA Assay (Bmi-1 ELISA) in HT-1080 cells. The format is cell-based. The gist of the method: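 HT-1080 cells exposed to compound in 0.5% final DMSO for 40-48 h at 37 °C, then lysed. Bmi-1 was quantified by sandwich ELISA: mouse monoclonal capture, rabbit anti-Bmi-1 detection, HRP anti-rabbit and TMB. Read at OD450 (OD570 reference) against a recombinant GST-Bmi-1 standard curve (0-8000 pg/mL).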
For orientation: ELISA stands for enzyme-linked immunosorbent assay.

In data set [3] the test system is CSC population in a BXD GBM model. The data set is described as follows: In Vitro Cancer Stem Cell Assay, BXD GBM model (number of neurospheres). Format: cell-based. Particulars: 13 days, stated concentrations. The protocol:
In Vitro Cancer Stem Cell Assay
The effect on inhibition of Bmi-1 function and reduction in the level of Bmi-1 protein by a compound of Formula (I) or a form thereof was tested in the in vitro pediatric Baylor Xenograft Derived (BXD) brain tumor model and in cells from primary patient cultures (PPC).
Cells were grown under conditions to measure either general cell growth (such as in fetal bovine serum (FBS) containing media in conventional tissue culture plates) or in conditions specifically for cancer stem cell (CSC) growth (low serum, nonadherent plates) to assess the effect of Bmi-1 inhibition and reduction in the level of Bmi-1 protein by a compound of Formula (I) on these populations. The cells were treated with a predetermined dose range of Compound 109 at fixed time points over a time period of from 24 hours to 13 days. The effect of inhibition on cell growth viability was quantitated using conventional 2D growth and neurosphere growth using a cell-counting kit (CCK) (supplied by Dojindo Molecular Technologies, Inc.).

A word on the EC50: it is the concentration needed to bring the measured effect to its halfway point. High values mean a need for much substance, low ones an effect from little substance. `Cc1nc2ccc(F)cc2n1-c1nc(N)c(F)c(Nc2ccc(C(F)(F)F)cc2)n1` [Cpd 109, 5-fluoro-2-(6-fluoro-2-methyl-1H-benzimidazol-1-yl)-N-[4-(trifluoromethyl)phenyl]pyrimidine-4,6-diamine]: the “survival of tumor bearing mice, FIG. 4” value in data set [1] is reported as “extended survival”. This compound gave an EC50 in data set [2] of 10 to 100 nM. Further, in data set [3], the “CSC population (as measured by number of neurospheres), FIG. 1” value is recorded as “dose dependently reduced” and the “CSC population (as measured by number of neurospheres), FIG. 2” value is “universally reduced”.

One may read the melting point as the temperature, or range, at which the solid turns liquid. With `Cc1nc2ccc(F)cn2c1-c1nc(N)c(F)c(Nc2ccc(Cl)cc2)n1` [Cpd 251, N-(4-chlorophenyl)-5-fluoro-2-(6-fluoro-2-methylimidazo[1,2-a]pyridin-3-yl)pyrimidine-4,6-diamine], the melting point lay in the range of 226 to 229 °C. In data set [2], this compound came in with an EC50 of 100 to 3000 nM.

In turn, `COc1ccc(Nc2nc(-c3c(C)nc4ccc(F)cn34)nc(N)c2F)cc1` [Cpd 252, 5-fluoro-2-(6-fluoro-2-methylimidazo[1,2-a]pyridin-3-yl)-N-(4-methoxyphenyl)pyrimidine-4,6-diamine] had a melting point of 204 to 206 °C. In data set [2], this compound showed an EC50 of 10 to 100 nM.

Compound `Cc1ccc(Nc2nc(-c3c(C)nc4ccc(F)cn34)nc(N)c2F)cc1` [Cpd 253, 5-fluoro-2-(6-fluoro-2-methylimidazo[1,2-a]pyridin-3-yl)-N-(4-methylphenyl)pyrimidine-4,6-diamine] registered a melting point of 210 to 212 °C. This compound yielded an EC50 in data set [2] of 1 to 10 nM.

`Cc1nc2ccc(F)cc2n1-c1nc(N)cc(Nc2ccc(Cl)cc2)n1` [Cpd 263, N-(4-chlorophenyl)-2-(6-fluoro-2-methyl-1H-benzimidazol-1-yl)pyrimidine-4,6-diamine]: the melting point fell in the range of 183 to 185 °C. Besides, in data set [2], the EC50 fell in the range of 10 to 100 nM.

`Cc1nc2ccc(F)cc2n1-c1nc(N)cc(Nc2ccc(N(C)C)cc2)n1` [Cpd 266, N-[4-(dimethylamino)phenyl]-2-(6-fluoro-2-methyl-1H-benzimidazol-1-yl)pyrimidine-4,6-diamine] had a melting point of 122 to 125 °C. In addition, the EC50 in data set [2] lay within 10 to 100 nM.

Take `Cc1nc2ccc(F)cc2n1-c1nc(N)cc(Nc2ccc(Cl)c(F)c2)n1` [Cpd 267, N-(4-chloro-3-fluorophenyl)-2-(6-fluoro-2-methyl-1H-benzimidazol-1-yl)pyrimidine-4,6-diamine]: the melting point lay within 225 to 227 °C. This compound yielded an EC50 in data set [2] of 100 to 3000 nM.

The compound `Cc1cccc(Nc2cc(N)nc(-n3c(C)nc4ccc(F)cc43)n2)c1` [Cpd 268, 2-(6-fluoro-2-methyl-1H-benzimidazol-1-yl)-N-(3-methylphenyl)pyrimidine-4,6-diamine] came in with a melting point of 203 to 205 °C. The compound also came in with an EC50 in data set [2] of 100 to 3000 nM.

With `Cc1nc2ccc(F)cc2n1-c1nc(N)cc(Nc2ccc3c(c2)OC(F)(F)O3)n1` [Cpd 269, N-(2,2-difluoro-1,3-benzodioxol-5-yl)-2-(6-fluoro-2-methyl-1H-benzimidazol-1-yl)pyrimidine-4,6-diamine], the melting point lay within 212 to 215 °C. Also, in data set [2], the EC50 is 100 to 3000 nM.
